The test system of data set [1] is U87 cells. Briefly: MTT anti-proliferative assay, U87. The format is cell-based, human. As to conditions: for Cytotoxicity IC50, U87: human, 72 h. As to the method: (§1) All of the cells were incubated at 37 °C in a humidified atmosphere composed of 95% air and 5% CO2. The cell viability was determined by measuring the ability of cells to transform MTT (Genview, Houston, TX, USA) to a purple formazan dye. The cells were seeded in 96-well tissue culture plates at 2.5 × 10^3 cells/well for 24 h. […] After incubation, 20 μL/well of MTT solution (5 mg/mL phosphate buffered saline) were added and incubated for 5 h. The medium was aspirated and replaced with 100 μL/well of DMSO to dissolve the formazan salt. The color intensity of the formazan solution, which reflects the cell growth condition, was measured at 570 nm using a microplate spectrophotometer (SpectroAma™ 250, Winooski, VT, USA).

For data set [2], the system named is SW480 cells. Briefly: MTT anti-proliferative assay, SW480. The format is cell-based, human. The conditions noted are these: for Cytotoxicity IC50, SW480: human, 72 h. The procedure: as §1
Data set [3] is described as follows: MTT anti-proliferative assay, L02. In kind it is cell-based. As to conditions: human. As to the method:
as §1
In general terms: Formazan colour is commonly taken as a measure of viable cells.

Data set [4] has as its system HepG2 cells. Nature of the data set: MTT anti-proliferative assay, HepG2. As to conditions: for Cytotoxicity IC50, HepG2: human, 72 h. In kind it is cell-based, human. As to the method: as §1
The test system of data set [5] is MCF-7 cells. Nature of the data set: MTT anti-proliferative assay, MCF-7. The format is cell-based, human. As to conditions: for Cytotoxicity IC50, MCF-7: human, 72 h. As to the method:
as §1

For data set [6], the system named is HepG2 cells. Briefly: Annexin V-FITC/PI flow cytometry apoptosis analysis. The format is cell-based, human. The conditions noted are these: 72 h; for percentage of early apoptotic cells: mean; for Q4 (lower right, early apoptotic cells), representative dot plot: Figure 3 picture. As to the method: The apoptotic cells were quantified using an Annexin V-FITC (Sigma-Aldrich, USA) Apoptosis Detection Kit according to the manufacturer’s instructions. […] Five μL of Annexin V-fluorescein isothiocyanate (FITC) and 5 μL of PI were added. The analysis was performed with a FACScan flow cytometer (Coulter Epics Elite, Miami, FL, USA). The cells in the FITC-positive and PI-negative fraction were regarded as apoptotic cells.
In general terms: Flow cytometry measures light scatter and fluorescence of single cells or particles in a stream.

In data set [7] the test system is HepG2 cells. Nature of the data set: Hoechst33342 staining, nuclear damage observation. In kind it is cell-based, human. As to conditions: HepG2, 3, 6, 12 μg/mL, 72 h. As to the method:
Apoptotic nuclear morphology was visualized by the Hoechsst33342 staining technique. Cells were fixed with 3.7% of paraformaldehyde for 10 min at room temperature and washed three times with PBS. Thus, paraformaldehyde-fixed cells were stained using Hoechsst33342 (10 μg/mL) in the dark for 10 min. After washing three times with PBS, cells were visualized using fluorescence microscope.

Data set [8] relates to caspase-9. Nature of the data set: Western blot, cleaved caspase-9 in HepG2. The format is cell-based, human. As to conditions: HepG2, 3, 6, 12, and 24 μg/mL, 72 h. The procedure:
(§2) The protein was extracted with RIPA buffer and quantified using the Bradford method. Equal amounts of protein were loaded into each well. After SDS-PAGE, the proteins were transferred to a polyvinylidene difluoride (PVDF) membrane. The membrane was blocked with 5% non-fat milk for 1 h and incubated with a primary antibody (Cell Signaling Technology, Danvers, MA, USA, Rabbit monoclonal antibody, 1:1000) at 4 °C overnight. After washing two times with TBST (Tris-buffered saline with 0.1% Tween-20) buffer, the membrane was incubated with a secondary antibody (goat-anti-rabbit horseradish peroxidase (HRP)-conjugated 1:15,000) at room temperature for 1 h. The membranes were washed three times (8 min each time) with TBST. The intensity of the specific immunoreactive bands was detected through enhanced chemiluminescence (ECL).

In data set [9] the test system is caspase-3. Nature of the data set: Western blot, cleaved caspase-3 in HepG2. The format is cell-based, human. The conditions noted are these: HepG2, 3, 6, 12, and 24 μg/mL, 72 h. The procedure:
as §2

In data set [10] the test system is PARP. Briefly: Western blot, cleaved PARP in HepG2. As to conditions: HepG2, 3, 6, 12, and 24 μg/mL, 72 h. In kind it is cell-based, human. The procedure: as §2
For orientation: Immunoblotting shows a protein as a band on a membrane.

Data set [11] relates to hepatocellular carcinoma HepG2. The conditions noted are these: earlier research; cited from earlier work.
Data set [12] deals with human renal cell carcinoma GRC-1. The conditions noted are these: earlier research; cited from earlier work.

Converted amounts (≈) assume the structure as drawn.

In general, IC50 refers to the concentration that gives 50% inhibition. A higher IC50 goes with weaker potency in that assay.

In the case of `CC(C)C[C@@H]1NC(=O)[C@H](CC(C)C)N(C)C(=O)[C@H](CC(C)C)NC(=O)[C@H](CC(C)C)N(C)C(=O)[C@H](Cc2ccccc2)NC1=O` [Compound A1, Cyclo(Phe-N-Me-Leu-Leu-N-Me-Leu-Leu)], in [1], the “Cytotoxicity IC50, U87” value is over 40 µg/mL. The “Cytotoxicity IC50, SW480” value in data set [2] came to 12.37 ± 1.01 µg/mL. In data set [3], the IC50 at 72 h is over 40 µg/mL. Also, the “Cytotoxicity IC50, HepG2” value in [4] turned out to be 4.11 ± 0.16 µg/mL. In [5], the “Cytotoxicity IC50, MCF-7” value was determined as 9.40 ± 0.43 µg/mL.
Regarding `CC(C)C[C@@H]1NC(=O)[C@H](CC(C)C)N(C)C(=O)[C@H](CC(C)C)NC(=O)[C@H](CC(C)C)N(C)C(=O)[C@@H](Cc2ccccc2)NC1=O` [Compound A2, Cyclo(D-Phe-N-Me-Leu-Leu-N-Me-Leu-D-Leu)], the “Cytotoxicity IC50, U87” value in data set [1] is over 40 µg/mL. The “Cytotoxicity IC50, SW480” value in [2] turned out to be 5.75 ± 0.19 µg/mL. In data set [3], this molecule returned an IC50 at 72 h of over 40 µg/mL. The “Cytotoxicity IC50, HepG2” value in [4] came out at 4.56 ± 0.20 µg/mL. For the same molecule, the “Cytotoxicity IC50, MCF-7” value in data set [5] was determined as 9.64 ± 0.35 µg/mL.
On to `CC(C)C[C@@H]1NC(=O)[C@@H](CC(C)C)N(C)C(=O)[C@H](CC(C)C)NC(=O)[C@@H](Cc2ccccc2)N(C)C(=O)[C@H](CC(C)C)NC1=O` [Compound A3, Cyclo(Me-D-Leu-Leu-Leu-Me-D-Phe-Leu)], for which the “Cytotoxicity IC50, U87” value in [1] was determined as 20.16 ± 0.30 µg/mL. Also, the “Cytotoxicity IC50, SW480” value in [2] is 10.20 ± 0.15 µg/mL. Besides, the IC50 at 72 h in data set [3] was over 40 µg/mL. Moreover, the “Cytotoxicity IC50, HepG2” value in [4] came to 5.58 ± 0.11 µg/mL. The “Cytotoxicity IC50, MCF-7” value in data set [5] was 7.23 ± 0.27 µg/mL.
As to `CC(C)C[C@@H]1NC(=O)[C@@H](CC(C)C)N(C)C(=O)[C@H](CC(C)C)NC(=O)[C@@H](Cc2ccccc2)N(C)C(=O)[C@@H](CC(C)C)NC1=O` [Compound A4, Cyclo(Me-D-Leu-Leu-D-Leu-Me-D-Phe-Leu)], the “Cytotoxicity IC50, U87” value in data set [1] was determined as 2.82 ± 0.10 µg/mL. In addition, the “Cytotoxicity IC50, SW480” value in [2] came to 8.60 ± 0.08 µg/mL. In addition, in data set [3], the half-inhibitory concentration (IC50) at 72 h was over 40 µg/mL. The “Cytotoxicity IC50, HepG2” value in [4] came out at 6.27 ± 0.13 µg/mL. Also, the “Cytotoxicity IC50, MCF-7” value in data set [5] was found to be 6.56 ± 0.18 µg/mL.
As to `CC(C)C[C@@H]1NC(=O)[C@@H](CC(C)C)NC(=O)[C@@H](CC(C)C)N(C)C(=O)[C@@H](CC(C)C)NC(=O)[C@@H](Cc2ccccc2)N(C)C1=O` [Compound A5, Cyclo(Leu-D-N-Me-Phe-D-Leu-D-N-Me-Leu-D-Leu)], the “Cytotoxicity IC50, U87” value in [1] stood at 1.85 ± 0.11 µg/mL. Further, the “fold more active than galaxamide, U87” value in data set [1] (ratio of IC50 values) is 5.73 fold. For the same molecule, the “percentage of early apoptotic cells” value in data set [6] (HepG2, 3 μg/mL) is reported as 6.6% ± 1.7%; in [6] (HepG2, 12 μg/mL) it was 22.4% ± 2.4%. The “Q4 (lower right, early apoptotic cells), representative dot plot” value is 6.6% in data set [6] (HepG2, 3 μg/ml); 19.9% in [6] (HepG2, 6 μg/ml); 22.4% in data set [6] (HepG2, 12 μg/ml). In [2], the “Cytotoxicity IC50, SW480” value is 5.10 ± 0.12 µg/mL. The “fold more active than galaxamide, SW480” value in data set [2] (ratio of IC50 values) amounted to 8.59 fold. Further, the “nuclear morphology (Hoechst33342)” value in [7] was “chromatin condensation at the edges of the nuclear membrane and nuclear fragmentation”. Besides, the “cleaved caspase-9 expression” value in data set [8] is recorded as “significantly increased”. The molecule also had an IC50 at 72 h in [3] of 10.6 ± 0.6 µg/mL (≈ 16.8 µM). Besides, the “Cytotoxicity IC50, HepG2” value in data set [4] is 1.46 ± 0.09 µg/mL. Moreover, in data set [4] (ratio of IC50 values), the “fold more active than galaxamide, HepG2” value is given as 3.17 fold. For the same molecule, the “cleaved caspase-3 expression” value in data set [9] is listed as “significantly increased”. Besides, the “cleaved PARP expression” value in [10] was “significantly increased”. Besides, the “Cytotoxicity IC50, MCF-7” value in data set [5] worked out at 4.18 ± 0.15 µg/mL. For the same molecule, the “fold more active than galaxamide, MCF-7” value in data set [5] (ratio of IC50 values) worked out at 3.37 fold.
For the molecule Galaxamide, the “percentage of early apoptotic cells” value in data set [6] (HepG2, 6 μg/mL) is on record as 2.3% ± 0.3%; in data set [6] (HepG2, 24 μg/mL), 18.8% ± 1.9%. Also, the “Q4 (lower right, early apoptotic cells), representative dot plot” value in data set [6] (HepG2, 6 μg/ml) turned out to be 2.1%; in data set [6] (HepG2, 12 μg/ml), 13.4%; in data set [6] (HepG2, 24 μg/ml), 18.8%. The “nuclear morphology (Hoechst33342)” value in [7] was “chromatin condensation at the edges of the nuclear membrane and nuclear fragmentation”. Also, the “cleaved caspase-9 expression” value in data set [8] is given as “significantly increased”. The “cleaved caspase-3 expression” value in data set [9] is “significantly increased”. In data set [10], the “cleaved PARP expression” value was “significantly increased”. Also, the “antitumor activity against HepG2” value in [11] was “significant antitumor activity”. Also, in [12], the “antitumor activity against GRC-1” value is “significant antitumor activity”.
